This is an account of results in US20070160981A1 (priority 2005, published 2007).

In general, IC50 refers to the concentration that gives 50% inhibition.

Like-named read-outs stand apart in the source and are kept apart here.

Assay [1] deals with T1, SARS-CoV PLP2 (Severe acute respiratory syndrome coronavirus, UniProt P0C6U8). The assay is classed as biochemical.
For assay [2], the target named is T1, SARS-CoV PLP2.

In the case of `Nc1nc(S)c2[nH]cnc2n1` [2-amino-6-mercaptopurine], at SARS-CoV PLP2 [1], the “found in the screen for inhibitor of SARS-CoV PLP2” value (“found in the screen for inhibitor” below) was “found”.
On the same count and under the same terms, under `Sc1ncnc2nc[nH]c12` [6-mercaptopurine] stands “found”; under `Cn1cnc([N+](=O)[O-])c1Sc1ncnc2nc[nH]c12` [Azathioprine], “found”.
Consider `[Ca]` [Ca], for which the “effects on the activity of SARS-CoV PLP2” value on SARS-CoV PLP2 [1] is listed as “no effects”.
Turning to `O=NN(CCCl)C(=O)NCCCl` [Carmustine], at SARS-CoV PLP2 [1], the “found in the screen for inhibitor” value was “found”.
On to `[Co]` [Co], for which, on SARS-CoV PLP2 [1], the “effects on the activity of SARS-CoV PLP2” value was “no effects”.
Take `S=C([S-])N(Cc1ccccc1)Cc1ccccc1.S=C([S-])N(Cc1ccccc1)Cc1ccccc1.[Zn+2]` [Dibenzyl dithiocarbamic Zn]: the “inhibition of SARS-CoV PLP2, in words” value at SARS-CoV PLP2 [1] is “effective in inhibiting”.
For `O=C([O-])c1ccccc1-c1c2cc(Br)c(=O)cc-2oc2[c]([Hg+])c([O-])c(Br)cc12.[Na+].[Na+].[OH-]` [Merbromin], at SARS-CoV PLP2 [1], the “found in the screen for inhibitor” value is recorded as “found”.
With `[Mg]` [Mg], the “effects on the activity of SARS-CoV PLP2” value at SARS-CoV PLP2 [1] is given as “no effects”.
`[Mn]` [Mn]: at SARS-CoV PLP2 [1], the “effects on the activity of SARS-CoV PLP2” value is reported as “no effects”.
Take `CCN(C(=S)[S-])c1ccccc1.CCN(C(=S)[S-])c1ccccc1.[Zn+2]` [N-ethyl-N-phenyldithiocarbamic acid Zn]: on SARS-CoV PLP2 [1], the “inhibition of SARS-CoV PLP2, in words” value was “effective in inhibiting”.
In the case of `CCN1C(=O)C=CC1=O` [N-ethylmaleimide], the “effective in inhibiting SARS-CoV PLP2” value on SARS-CoV PLP2 [1] (1 mM) is “effective”.
For the molecule `[Ni]` [Ni], at SARS-CoV PLP2 [1], the “effects on the activity of SARS-CoV PLP2” value is “no effects”.
For the molecule `CN(C)C(=S)SSC(=S)N(C)C` [Thiram], the “found in the screen for inhibitor” value on SARS-CoV PLP2 [1] is reported as “found”.
On SARS-CoV PLP2 [1], `[Zn+2]` [Zinc ion] gave an IC50 of 1300 nM.
`CC(C)C[C@H](NC(=O)[C@@H](NC(=O)N[C@@H](Cc1ccccc1)C(=O)O)[C@@H]1CCN=C(N)N1)C(=O)N[C@H](C=O)Cc1ccccc1` [chymostatin]: on SARS-CoV PLP2 [1] (1 mM), the “effective in inhibiting SARS-CoV PLP2” value is “none of them was effective”.
Turning to `[O-]n1ccccc1=S.[O-]n1ccccc1=S.[Zn+2]` [hydroxypridine-2-thione Zn], the “inhibition of SARS-CoV PLP2, in words” value on SARS-CoV PLP2 [1] was “effective in inhibiting”.
Regarding `CC(=O)N[C@@H](CC(C)C)C(=O)N[C@@H](CC(C)C)C(=O)N[C@H](C=O)CCCNC(=N)N` [leupeptin], on SARS-CoV PLP2 [1] (0.1 mM), the “effective in inhibiting SARS-CoV PLP2” value is “none of them was effective”.
Take FRLKGGAPI [FRLKGG-API]: on SARS-CoV PLP2 [2], the “percentage of the cleavage after 2 hours of digestion” value was 36% and the “percentage of the cleavage after 12 hours of digestion” value came out at 85%. In addition, on SARS-CoV PLP2 [2] (pH 6.8), the “Cleavage % 2 hours” value turned out to be 36.2 ± 6.4% and the “Cleavage % 12 hours” value was found to be 85.1 ± 4.9%.
For FRLKGGAPIK [FRLKGG-APIK] the same measures were 50%, 100%, 49.9 ± 2.6% and 100 ± 0.0%.
With FRLKGGAPIKGV, on SARS-CoV PLP2 [2], the “Cleavage % 2 h” value came to 70.1 ± 7.4%, the “Cleavage % 2 hours” value was 70 ± 7%, the “Cleavage % 12 h” value worked out at 100 ± 0.0% and the “Cleavage % 12 hours” value is on record as 100%. Also, on SARS-CoV PLP2 [2], the “percentage of the cleavage after 2 hours of digestion” value is recorded as 70% and the “percentage of the cleavage after 12 hours of digestion” value is 100%. Moreover, on SARS-CoV PLP2 [2] (pH 6.8), the “Cleavage % 2 hours” value is given as 70.1 ± 7.4% and the “Cleavage % 12 hours” value is recorded as 100 ± 0.0%.
In the case of ISLKGGKIVSTC [Gly2740-Lys2741], on SARS-CoV PLP2 [2], the “Cleavage % 2 hours” value amounted to 7 ± 1%, the “Cleavage % 12 hours” value was found to be 29 ± 4%, the “percentage of the cleavage after 2 hours of digestion” value came out at 7% and the “percentage of the cleavage after 12 hours of digestion” value is given as 29%.
On to LKGGAPIK, for which, on SARS-CoV PLP2 [2], the “percentage of the cleavage after 2 hours of digestion” value worked out at 11% and the “percentage of the cleavage after 12 hours of digestion” value turned out to be 45%. On SARS-CoV PLP2 [2] (pH 6.8), the “Cleavage % 2 hours” value was 11.4 ± 4.3% and the “Cleavage % 12 hours” value turned out to be 44.7 ± 3.5%.
As to “NNVFRLKGGAPIKGVTFG [N N V F R L K G G A P I K G V T F G]”, at SARS-CoV PLP2 [2], the “Cleavage % 2 hours” value is on record as 60.5 ± 0.7% and the “Cleavage % 12 hours” value worked out at 100 ± 0.0%.
For “NVFRLKGGAPIKGVTF [N V F R L K G G A P I K G V T F]” the same measures were 63.0 ± 1.4% and 100 ± 0.0%.
As to RLKGGAPIKG [RLKGG-APIKG], the “percentage of the cleavage after 12 hours of digestion” value on SARS-CoV PLP2 [2] turned out to be 56%. At SARS-CoV PLP2 [2] (pH 6.8), the “Cleavage % 2 hours” value came out at 14.8 ± 4.1% and the “Cleavage % 12 hours” value is given as 56.4 ± 5.6%.
Consider VFRLKGGAPIK, for which, on SARS-CoV PLP2 [2] (pH 6.8), the “Cleavage % 2 hours” value is recorded as 52.9 ± 3.5% and the “Cleavage % 12 hours” value stood at 100 ± 0.0%.
For “VFRLKGGAPIKGVT [V F R L K G G A P I K G V T]” the same measures were 67.6 ± 9.0% and 100 ± 0.0%.
For cystatin, the “effective in inhibiting SARS-CoV PLP2” value at SARS-CoV PLP2 [1] was “none of them was effective”.
